SMILES strings stand for the structures. Where “and” joins values, the source holds several entries; their conditions need not be identical. Identical values can stand only once.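 Growth conditions: 96-well plates. Treatment: test compound, 48 hours, 5 concentrations. Analysis: linear interpolation between bracketing concentrations; unreached endpoints set to highest concentration. GI50 marks 50% less growth. TGI: total growth inhibition.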 Some results are limits rather than exact numbers.

In one experiment the test system is OVCAR-3 ovarian. Nature of the experiment: NCI anticancer screen, dose series, 48 h.
Take `O=C(C#Cc1c[nH]c(=O)[nH]c1=O)c1ccccc1Cl`: the TGI was found to be 27.3 µM.

Turning to `CC(=O)OC1=C2CC3(C)OC(=O)CC(C)(C)C3=CC=C2C=C(C(C)C)C1=O` (stereo unspecified), the TGI was found to be 2.41 µM.

The molecule `CCCCCCCCCCCCCCCC(=O)NCC(COP(=O)([O-])OCC[N+](C)(C)C)OCC` (stereo unspecified) came in with a TGI of 18.9 µM.

Regarding `CCC(C)C1NC(=O)c2nc(oc2-c2ccccc2)-c2csc(n2)-c2csc(n2)-c2nc(oc2C)-c2coc(n2)CNC(=O)C(C(C)CC)NC1=O` (stereo unspecified), the GI50 was 0.0201 µM and the TGI stood at 0.0642 µM.

Consider `O=C1CCCN(c2ccccc2)N1`, for which the TGI was more than 100 µM.

The molecule `CN(C)/C(=N/C(=S)Nc1ccccc1)SCc1ccccc1` registered a TGI of more than 100 µM.

`CCOC(=O)CC1=Nc2ccccc2SC1` displayed a TGI of more than 100 µM.

For `C=CCSC[C@H](NC(=O)COc1ccccc1)C(=O)NC(C(=O)OCc1ccc([N+](=O)[O-])cc1)=C(C)C`, the TGI is more than 100 µM.

The next experiment deals with NCI-H522 lung. Nature of the experiment: NCI anticancer screen, dose series, 48 h.
Molecule `CCOc1ccc(NC(=O)CC2Sc3ccccc3NC2=O)cc1` (stereo unspecified) yielded a TGI of more than 100 µM.

Take `Cn1cc(NC(=O)c2cc(NC(=O)CCCCCCCCCCC(=O)Nc3cc(C(=O)Nc4cc(C(=O)NCCC(=N)N)n(C)c4)n(C)c3)cn2C)cc1C(=O)NCCC(=N)N`: the TGI was more than 100 µM.

On to `CC(C)(C)OC(=O)n1cc(CNC(=S)Nc2ccccc2)c2ccccc21`, for which the GI50 was more than 100 µM and the TGI was more than 100 µM.

Turning to `O=C(Nc1cccc(-n2ccc3c(NC(=O)c4ccccc4)nccc32)c1)c1cccc(C(F)(F)F)c1`, the GI50 was 0.0199 µM and the TGI was 0.0759 µM.

Regarding `C1COCCN1.C1COCCN1.N.N.[Cl-].[Pt+2]`, the GI50 was more than 100 µM and the TGI was more than 100 µM.

Regarding `C=C1C(O)C2CCC(C)(C)C(=O)C2=C(CC(C)C)C12CC2` (stereo unspecified), the GI50 was 36.6 µM and the TGI is more than 100 µM.

As to `O=C1/C(=C/c2ccc(F)cc2)CCOc2ccc([N+](=O)[O-])cc21`, the GI50 is 1.91 µM and the TGI came to 4.14 µM.

In the case of `Cc1ccccc1C(C#N)C(=O)C(=O)Nc1nc([N+](=O)[O-])cs1` (stereo unspecified), the TGI is more than 100 µM.

Consider `C#CCNC(=O)NC(CCCNC(=O)OCc1ccccc1)C(=O)OCc1ccccc1` (stereo unspecified), for which the TGI worked out at 62.7 µM.

As to `COc1ccc2cc1Oc1ccc(cc1)C[C@H]1c3cc(c(OC)cc3CCN1C)Oc1c(OC)c(OC)cc3c1[C@H](C2)N(C)CC3`, the GI50 was 3.27 µM; the TGI was 14.9 µM and 12.2 µM and > 100 µM.

The molecule `O=c1[nH]c2ccccc2cc1C(Cl)=C(Cl)Cl` showed a TGI of more than 100 µM.

As for `O=[N+]([O-])[C@@H]1C2C=CC(C2)[C@H]1Cl` (stereo partly specified), the TGI was more than 100 µM.

Molecule `COC(=O)C(C#N)=C1c2ccccc2Oc2ccccc21` yielded a TGI of 77.3 µM.

On to `N#CC1(c2nc3ccccc3o2)C(=O)C(=O)N(C2C3CC4CC(C3)CC2C4)C(=O)C1=O` (stereo unspecified), for which the TGI was more than 100 µM.

The molecule `O=C1NC(c2ccc(O)cc2)C2CCC1C2` (stereo unspecified) showed a TGI of more than 100 µM.

Molecule `C=CC1=CSNN1` registered a TGI of more than 100 µM.

Turning to `NC(N)=N/N=C(/c1ccccc1)c1ccc(F)cc1`, the GI50 is 0.267 µM and the TGI worked out at 1.45 µM.

`CC(=O)OC1=C2CC3(C)OC(=O)CC(C)(C)C3=CC=C2C=C(C(C)C)C1=O` (stereo unspecified) displayed a TGI of 0.41 µM.

As for `O=C1CCCN(c2ccccc2)N1`, the TGI was more than 100 µM.

Take `CN(C)/C(=N/C(=S)Nc1ccccc1)SCc1ccccc1`: the TGI was more than 100 µM.

Molecule `CCOC(=O)CC1=Nc2ccccc2SC1` yielded a TGI of more than 100 µM.

For `C=CCSC[C@H](NC(=O)COc1ccccc1)C(=O)NC(C(=O)OCc1ccc([N+](=O)[O-])cc1)=C(C)C`, the TGI is more than 100 µM.

For a further experiment, the system named is MALME-3M melanoma. Briefly: NCI anticancer screen, dose series, 48 h.
`CCOc1ccc(NC(=O)CC2Sc3ccccc3NC2=O)cc1` (stereo unspecified) registered a TGI of more than 100 µM.

Consider `O=C(Nc1cccc(-n2ccc3c(NC(=O)c4ccccc4)nccc32)c1)c1cccc(C(F)(F)F)c1`, for which the GI50 was 0.0464 µM and the TGI was 10.4 µM.

Consider `C1COCCN1.C1COCCN1.N.N.[Cl-].[Pt+2]`, for which the GI50 was more than 100 µM and the TGI is more than 100 µM.

Turning to `C=C1C(O)C2CCC(C)(C)C(=O)C2=C(CC(C)C)C12CC2` (stereo unspecified), the GI50 is 35.6 µM and the TGI is more than 100 µM.

Take `O=C1/C(=C/c2ccc(F)cc2)CCOc2ccc([N+](=O)[O-])cc21`: the GI50 is 2.27 µM and the TGI was 5.79 µM.

With `Cc1ccccc1C(C#N)C(=O)C(=O)Nc1nc([N+](=O)[O-])cs1` (stereo unspecified), the TGI is more than 100 µM.

`COC(=O)C(c1[nH]nc2ccccc12)C(C(=O)OC)c1[nH]nc2ccccc12` (stereo unspecified) yielded a TGI of more than 100 µM.

`C#CCNC(=O)NC(CCCNC(=O)OCc1ccccc1)C(=O)OCc1ccccc1` (stereo unspecified) returned a TGI of more than 100 µM.

Consider `O=c1[nH]c2ccccc2cc1C(Cl)=C(Cl)Cl`, for which the TGI is more than 100 µM.

The molecule `O=[N+]([O-])[C@@H]1C2C=CC(C2)[C@H]1Cl` (stereo partly specified) came in with a TGI of more than 100 µM.

Take `COC(=O)C(C#N)=C1c2ccccc2Oc2ccccc21`: the TGI was more than 100 µM.

`N#CC1(c2nc3ccccc3o2)C(=O)C(=O)N(C2C3CC4CC(C3)CC2C4)C(=O)C1=O` (stereo unspecified): the TGI was more than 100 µM.

`O=C1NC(c2ccc(O)cc2)C2CCC1C2` (stereo unspecified): the TGI was more than 100 µM.

In the case of `CCOC(=O)C1(CC)CCCCC(=O)N1` (stereo unspecified), the TGI was more than 100 µM.

The molecule `C=CC1=CSNN1` showed a TGI of more than 100 µM.

`NC(N)=N/N=C(/c1ccccc1)c1ccc(F)cc1`: the GI50 was 0.368 µM and the TGI came out at 22 µM.

In turn, `O=C(C#Cc1c[nH]c(=O)[nH]c1=O)c1ccccc1Cl` returned a TGI of 32.1 µM.

In turn, `CC(=O)OC1=C2CC3(C)OC(=O)CC(C)(C)C3=CC=C2C=C(C(C)C)C1=O` (stereo unspecified) showed a TGI of 1.17 µM.

Molecule `CCCCCCCCCCCCCCCC(=O)NCC(COP(=O)([O-])OCC[N+](C)(C)C)OCC` (stereo unspecified) gave a TGI of 30.8 µM.

`O=C1CCCN(c2ccccc2)N1` yielded a TGI of more than 100 µM.

`CN(C)/C(=N/C(=S)Nc1ccccc1)SCc1ccccc1`: the TGI is more than 100 µM.

As for `CCOC(=O)CC1=Nc2ccccc2SC1`, the TGI was more than 100 µM.

As to `C=CCSC[C@H](NC(=O)COc1ccccc1)C(=O)NC(C(=O)OCc1ccc([N+](=O)[O-])cc1)=C(C)C`, the TGI is more than 100 µM.

Source of the values: PubChem BioAssay (NCI).
